The source made the active and inactive calls. The rule behind the calls is not given here.

The test system of the data set is CCRIS mutagenicity, Ames/micronucleus/aberration tests. Put plainly: CCRIS mutagenicity studies. Particulars: Test System: AMES SALMONELLA TYPHIMURIUM
Where [1] appears, read: Strain/Indicator: TA98, Metabolic Activation: NONE, Method: STANDARD PLATE.
Setting [2] is: Strain/Indicator: TA100, Metabolic Activation: NONE, Method: STANDARD PLATE.
[3] abbreviates: Strain/Indicator: TA100, Metabolic Activation: RAT, LIVER, S-9, AROCLOR 1254, Method: PREINCUBATION
Setting [4] is: Strain/Indicator: TA102, Metabolic Activation: NONE, Method: STANDARD PLATE.
Setting [5] is: Strain/Indicator: TA98, Metabolic Activation: HAMSTER, LIVER, S-9, AROCLOR 1254, Method: PREINCUBATION
Setting [6] is: Strain/Indicator: TA98, Metabolic Activation: NONE, Method: PREINCUBATION
Where [7] appears, read: Strain/Indicator: TA98, Metabolic Activation: RAT, LIVER, S-9, AROCLOR 1254, Method: PREINCUBATION
Where [8] appears, read: Strain/Indicator: TA100, Metabolic Activation: HAMSTER, LIVER, S-9, AROCLOR 1254, Method: PREINCUBATION
The mark [9] stands for this setting: Strain/Indicator: TA100, Metabolic Activation: NONE, Method: PREINCUBATION
Setting [10] is: Strain/Indicator: TA1535, Metabolic Activation: HAMSTER, LIVER, S-9, AROCLOR 1254, Method: PREINCUBATION
Setting [11] is: Strain/Indicator: TA1535, Metabolic Activation: NONE, Method: PREINCUBATION
Setting [12] is: Strain/Indicator: TA1535, Metabolic Activation: RAT, LIVER, S-9, AROCLOR 1254, Method: PREINCUBATION
Where [13] appears, read: Strain/Indicator: TA1537, Metabolic Activation: HAMSTER, LIVER, S-9, AROCLOR 1254, Method: PREINCUBATION
Setting [14] is: Strain/Indicator: TA1537, Metabolic Activation: NONE, Method: PREINCUBATION
Setting [15] is: Strain/Indicator: TA1537, Metabolic Activation: RAT, LIVER, S-9, AROCLOR 1254, Method: PREINCUBATION

`Cc1c(N(C)CS(=O)(=O)O)c(=O)n(-c2ccccc2)n1C`: the mutagenic call reads like this: (Strain/Indicator: TA97A, Metabolic Activation: NONE, Method: STANDARD PLATE) “inactive; negative”; (Strain/Indicator: TA97A, Metabolic Activation: RAT LIVER S-9, PHENOBARBITAL, Method: STANDARD PLATE) “active; positive”; (Strain/Indicator: TA98, Metabolic Activation: GUINEA PIG, LIVER, S-9, PCB, Method: PREINCUBATION) “inactive; negative”; (Strain/Indicator: TA98, Metabolic Activation: HAMSTER, LIVER, S-9, PCB, Method: PREINCUBATION) “inactive; negative”; (Strain/Indicator: TA98, Metabolic Activation: MOUSE, LIVER, S-9, PCB, Method: PREINCUBATION) “inactive; negative”; under setting [1], “inactive; negative”. Besides, the mutagenic call (Strain/Indicator: TA98, Metabolic Activation: RAT LIVER S-9, PHENOBARBITAL, Method: STANDARD PLATE) was “active; positive”; the mutagenic call (Strain/Indicator: TA98, Metabolic Activation: RAT, LIVER, S-9, PCB, Method: PREINCUBATION) is “inactive; negative”; the mutagenic call (Strain/Indicator: TA100, Metabolic Activation: GUINEA PIG, LIVER, S-9, PCB, Method: PREINCUBATION) is “inactive; negative”; the mutagenic call (Strain/Indicator: TA100, Metabolic Activation: HAMSTER, LIVER, S-9, PCB, Method: PREINCUBATION) was “inactive; negative”; the mutagenic call (Strain/Indicator: TA100, Metabolic Activation: MOUSE, LIVER, S-9, PCB, Method: PREINCUBATION) was “inactive; negative”; the mutagenic call under setting [2] is “inactive; negative”. For the same molecule, the mutagenic call (Strain/Indicator: TA100, Metabolic Activation: RAT LIVER S-9, PHENOBARBITAL, Method: STANDARD PLATE) was “inactive; negative”; the mutagenic call under setting [3] was “active; positive”; the mutagenic call (Strain/Indicator: TA100, Metabolic Activation: RAT, LIVER, S-9, PCB, Method: PREINCUBATION) is “active; positive”; the mutagenic call under setting [4] was “inactive; negative”; the mutagenic call (Strain/Indicator: TA102, Metabolic Activation: RAT LIVER S-9, PHENOBARBITAL, Method: STANDARD PLATE) was “inactive; negative”.

With `CCCCOB(OCCCC)OCCCC`, the mutagenic call is “inactive; negative” under setting [5]; “inactive; negative” under setting [6]; “inactive; negative” under setting [7]; “inactive; negative” under setting [8]; “inactive; negative” under setting [9]; “inactive; negative” under setting [3]. The mutagenic call runs as follows: under setting [10], “inactive; negative”; under setting [11], “inactive; negative”; under setting [12], “inactive; negative”; under setting [13], “inactive; negative”; under setting [14], “inactive; negative”; under setting [15], “inactive; negative”.

As for `COP(=S)(OC)Oc1ccc(Sc2ccc(OP(=S)(OC)OC)cc2)cc1`, the mutagenic call is, setting by setting: (Strain/Indicator: TA97, Metabolic Activation: NONE, Method: STANDARD PLATE) “inactive; negative”; (Strain/Indicator: TA97, Metabolic Activation: S-9, Method: STANDARD PLATE) “inactive; negative”; under setting [1], “inactive; negative”; (Strain/Indicator: TA98, Metabolic Activation: S-9, Method: STANDARD PLATE) “inactive; negative”; (Strain/Indicator: TA98NR, Metabolic Activation: NONE, Method: STANDARD PLATE) “active; positive”; (Strain/Indicator: TA98NR, Metabolic Activation: S-9, Method: STANDARD PLATE) “active; positive”. In addition, the mutagenic call is, setting by setting: under setting [2], “inactive; negative”; (Strain/Indicator: TA100, Metabolic Activation: S-9, Method: STANDARD PLATE) “inactive; negative”; under setting [4], “inactive; negative”; (Strain/Indicator: TA102, Metabolic Activation: S-9, Method: STANDARD PLATE) “inactive; negative”; (Strain/Indicator: TA1535, Metabolic Activation: NONE, Method: STANDARD PLATE) “active; positive”; (Strain/Indicator: TA1535, Metabolic Activation: S-9, Method: STANDARD PLATE) “active; positive”. Moreover, the mutagenic call is, setting by setting: (Strain/Indicator: YG7104, Metabolic Activation: NONE, Method: STANDARD PLATE) “active; positive”; (Strain/Indicator: YG7104, Metabolic Activation: S-9, Method: STANDARD PLATE) “active; positive”; (Strain/Indicator: YG7108, Metabolic Activation: NONE, Method: STANDARD PLATE) “inactive; negative”; (Strain/Indicator: YG7108, Metabolic Activation: S-9, Method: STANDARD PLATE) “active; positive”.

With `Brc1c(Br)c(Br)c(Br)c(Br)c1Br`, the mutagenic call is “inactive; negative” under setting [5]; “inactive; negative” under setting [6]; “inactive; negative” under setting [7]; “inactive; negative” under setting [8]; “inactive; negative” under setting [9]; “inactive; negative” under setting [3]. The mutagenic call runs as follows: under setting [10], “inactive; negative”; under setting [11], “inactive; negative”; under setting [12], “inactive; negative”; under setting [13], “inactive; negative”; under setting [14], “inactive; negative”; under setting [15], “inactive; negative”.

Values taken from PubChem BioAssay AID1259407 (Chemical Carcinogenesis Research Information System (CCRIS), 2018).
